Here are results for ten molecules from ChEMBL document CHEMBL6127049, “Discovery of the selective and nanomolar inhibitor of DPP-4 more potent than sitagliptin by structure-guided rational design” (Eur J Med Chem, 2024).

SMILES strings stand for the structures. Calls of active or inactive are those of the source. The calls are words filed in the database; no cut-off is given here.

As a reminder, the IC50 is the midpoint of a concentration-inhibition curve.

Assay [1] deals with Dipeptidyl peptidase 4 (Homo sapiens, UniProt P27487). Nature of the assay: Inhibition of DPP4 (unknown origin) assessed as hydrolysis rate using Gly-pro-p-nitroanilide as substrate measured after 20 mins incubation by fluorometric assay.
Chain of Dipeptidyl peptidase 4 (P27487 whole entry): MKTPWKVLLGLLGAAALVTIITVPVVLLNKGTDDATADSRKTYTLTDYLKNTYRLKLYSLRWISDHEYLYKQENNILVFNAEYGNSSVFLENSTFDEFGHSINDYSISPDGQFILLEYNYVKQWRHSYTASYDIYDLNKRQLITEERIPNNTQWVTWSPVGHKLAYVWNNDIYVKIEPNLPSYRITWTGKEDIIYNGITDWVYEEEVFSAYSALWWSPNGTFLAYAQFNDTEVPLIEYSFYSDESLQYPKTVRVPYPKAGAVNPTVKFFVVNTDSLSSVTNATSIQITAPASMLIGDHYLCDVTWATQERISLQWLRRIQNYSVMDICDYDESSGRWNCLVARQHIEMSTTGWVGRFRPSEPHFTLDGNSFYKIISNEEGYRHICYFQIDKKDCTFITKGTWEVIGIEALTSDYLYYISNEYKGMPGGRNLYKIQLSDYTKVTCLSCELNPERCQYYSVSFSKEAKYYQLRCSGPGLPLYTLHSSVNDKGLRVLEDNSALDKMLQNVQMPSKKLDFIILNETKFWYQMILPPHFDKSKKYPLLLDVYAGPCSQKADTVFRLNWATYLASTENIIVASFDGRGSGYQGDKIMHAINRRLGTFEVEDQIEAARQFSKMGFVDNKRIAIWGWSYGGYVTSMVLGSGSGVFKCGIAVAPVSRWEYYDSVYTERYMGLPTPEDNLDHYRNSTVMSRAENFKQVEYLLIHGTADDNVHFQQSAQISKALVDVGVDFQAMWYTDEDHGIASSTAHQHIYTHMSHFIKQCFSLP
Assay [2] concerns Rattus norvegicus. Nature of the assay: Antihyperlipidemic effect in STZ-induced type 2 diabetes male Wistar albino rat model assessed as triglyceride level at 10 mg/kg, po measured after 4 weeks (reference value: 190.23 +/- 4.37 mg/dL). In kind it is functional.
In assay [3] the test system is Rattus norvegicus. Nature of the assay: Anti-diabetic activity in normal Wistar rat model assessed as blood glucose level at 20 mg/kg, po followed by treated administered 3 mg/kg orally measured immediately after administration by Oral glucose tolerance test (reference value: 105.12 mg/dL). In kind it is functional.
For assay [4], the system named is Rattus norvegicus. Description: Antihyperlipidemic effect in STZ-induced type 2 diabetes male Wistar albino rat model assessed as HDL level at 10 mg/kg, po measured after 4 weeks (reference value: 25.54 +/- 2.62 mg/dL). In kind it is functional.
For assay [5], the system named is Rattus norvegicus. Description: Anti-diabetic activity in normal Wistar rat model assessed as blood glucose level at 10 mg/kg, po followed by treated administered 3 mg/kg orally measured after 90 mins by Oral glucose tolerance test (reference value: 134.11 + /- 4.64 mg/dL). In kind it is functional. The settings on record: 1.5 h.
Assay [6] concerns Rattus norvegicus. Description: Anti-diabetic activity in normal Wistar rat model assessed as blood glucose level at 20 mg/kg, po followed by treated administered 3 mg/kg orally measured after 60 mins by Oral glucose tolerance test (reference value: 153.74 + /- 3.94 mg/dL). In kind it is functional. The following applies: 1 h.
The subject of assay [7] is Rattus norvegicus. Description: Reduction of serum glutamate pyruvate transaminase (SGPT) level in STZ-induced type 2 diabetes male Wistar albino rat model at 20 mg/kg, po measured after 4 weeks by hepatic function test. In kind it is functional, organism-based.
In assay [8] the test system is Rattus norvegicus. Description: Reduction of alkaline phosphatase (ALP) level in STZ-induced type 2 diabetes male Wistar albino rat model at 10 mg/kg, po measured after 4 weeks by hepatic function test. In kind it is functional, organism-based.
Assay [9] has as its system Rattus norvegicus. Nature of the assay: Antihyperlipidemic effect in STZ-induced type 2 diabetes male Wistar albino rat model assessed as triglyceride level at 20 mg/kg, po measured after 4 weeks (reference value: 190.23 +/- 4.37 mg/dL). In kind it is functional.
For assay [10], the system named is Rattus norvegicus. Description: Antihyperlipidemic effect in STZ-induced type 2 diabetes male Wistar albino rat model assessed as LDL level at 20 mg/kg, po measured after 4 weeks (reference value: 184.65 +/- 4.57 mg/dL). In kind it is functional.
Assay [11] relates to Rattus norvegicus. Nature of the assay: Reduction of serum glutamate oxaloacetate transaminase (SGOT) level in STZ-induced type 2 diabetes male Wistar albino rat model at 10 mg/kg, po measured after 4 weeks by hepatic function test. In kind it is functional, organism-based.
For assay [12], the system named is Rattus norvegicus. Nature of the assay: Antihyperlipidemic effect in STZ-induced type 2 diabetes male Wistar albino rat model assessed as total cholesterol level at 20 mg/kg, po measured after 4 weeks (reference value: 227.04 +/- 4.10 mg/dL). In kind it is functional.
Assay [13] has as its system Rattus norvegicus. Description: Anti-diabetic activity in normal Wistar rat model assessed as blood glucose level at 10 mg/kg, po followed by treated administered 3 mg/kg orally measured after 30 mins by Oral glucose tolerance test (reference value: […] 176.14 + /- 4.04 mg/dL). The following applies: 0.5 h. In kind it is functional.
The test system of assay [14] is Rattus norvegicus. Nature of the assay: Anti-diabetic activity in normal Wistar rat model assessed as blood glucose level at 20 mg/kg, po followed by treated administered 3 mg/kg orally measured after 30 mins by Oral glucose tolerance test (reference value: 176.14 + /- 4.04 mg/dL). In kind it is functional. The following applies: 0.5 h.
For assay [15], the system named is Rattus norvegicus. Nature of the assay: Reduction of serum glutamate pyruvate transaminase (SGPT) level in STZ-induced type 2 diabetes male Wistar albino rat model at 10 mg/kg, po measured after 4 weeks by hepatic function test. In kind it is functional, organism-based.
The test system of assay [16] is Rattus norvegicus. Description: Antihyperlipidemic effect in STZ-induced type 2 diabetes male Wistar albino rat model assessed as HDL level at 20 mg/kg, po measured after 4 weeks (reference value: 25.54 +/- 2.62 mg/dL). In kind it is functional.
Assay [17] has as its system Rattus norvegicus. Nature of the assay: Anti-diabetic activity in normal Wistar rat model assessed as blood glucose level at 10 mg/kg, po followed by treated administered 3 mg/kg orally measured after 120 mins by Oral glucose tolerance test (reference value: 126.5 + /- 3.90 mg/dL). In kind it is functional. The settings on record: 2 h.
In assay [18] the test system is Rattus norvegicus. Nature of the assay: Anti-diabetic activity in normal Wistar rat model assessed as blood glucose level at 20 mg/kg, po followed by treated administered 3 mg/kg orally measured after 90 mins by Oral glucose tolerance test (reference value: 134.11 + /- 4.64 mg/dL). In kind it is functional. The following applies: 1.5 h.
Assay [19] concerns Rattus norvegicus. Description: Anti-diabetic activity in normal Wistar rat model assessed as blood glucose level at 10 mg/kg, po followed by treated administered 3 mg/kg orally measured after 60 mins by Oral glucose tolerance test (reference value: 153.74 + /- 3.94 mg/dL). In kind it is functional. The settings on record: 1 h.
In assay [20] the test system is Rattus norvegicus. Description: Anti-diabetic activity in normal Wistar rat model assessed as blood glucose level at 10 mg/kg, po followed by treated administered 3 mg/kg orally measured immediately after administration by Oral glucose tolerance test (reference value: 105.12 mg/dL). In kind it is functional.
For assay [21], the system named is Rattus norvegicus. Description: Antihyperlipidemic effect in STZ-induced type 2 diabetes male Wistar albino rat model assessed as LDL level at 10 mg/kg, po measured after 4 weeks (reference value: 184.65 +/- 4.57 mg/dL). In kind it is functional.
For assay [22], the system named is Rattus norvegicus. Description: Reduction of serum glutamate oxaloacetate transaminase (SGOT) level in STZ-induced type 2 diabetes male Wistar albino rat model at 20 mg/kg, po measured after 4 weeks by hepatic function test. In kind it is functional, organism-based.
Assay [23] has as its system Rattus norvegicus. Nature of the assay: Anti-diabetic activity in normal Wistar rat model assessed as blood glucose level at 20 mg/kg, po followed by treated administered 3 mg/kg orally measured after 120 mins by Oral glucose tolerance test (reference value: 126.5 + /- 3.90 mg/dL). In kind it is functional. The following applies: 2 h.
In assay [24] the test system is Rattus norvegicus. Nature of the assay: Reduction of alkaline phosphatase (ALP) level in STZ-induced type 2 diabetes male Wistar albino rat model at 20 mg/kg, po measured after 4 weeks by hepatic function test. In kind it is functional, organism-based.
Assay [25] concerns Rattus norvegicus. Nature of the assay: Antihyperlipidemic effect in STZ-induced type 2 diabetes male Wistar albino rat model assessed as total cholesterol level at 10 mg/kg, po measured after 4 weeks (reference value: 227.04 +/- 4.10 mg/dL). In kind it is functional.

Consider `CC1=C(CC(=O)N2CCCC(N)C2)C(C)NC(=O)N1` (centres undefined), for which, in assay [1], the half-maximal inhibitory concentration (IC50) is 1190 nM.
Still for that read-out and setting: the value for `CC1=C(CC(=O)N2CCCC(N)C2)C(c2ccc(F)c(F)c2)NC(=O)N1` (centres undefined) was 1040 nM.
Same read-out and setting: the value for `Cc1nc(N2CCn3c(nnc3C(F)(F)F)C2)nc(C)c1CC(=O)O` was 226 nM; that for `CC1=C(CC(=O)N2CCCC2C#N)C(C)NC(=O)N1` (centres undefined) was 1030 nM; that for `CC1=C([N+](=O)[O-])C(c2ccc(F)c(F)c2)N=C(N)N1C(=O)CN1CCCC(N)C1` (centres undefined) was 821 nM.
Take `CC1=C(CC(=O)N2CCn3c(nnc3C(F)(F)F)C2)C(c2ccc(F)c(F)c2)NC(=O)N1` (centres undefined): the 50% inhibitory concentration (IC50) in assay [1] amounted to 1060 nM.
Take `Cc1nc(N2CCCC(N)C2)nc(C)c1CC(=O)O` (centres undefined): the 50% inhibitory concentration (IC50) in [1] is 1400 nM.
On the same count and under the same terms, the same measure for `CC1=C(CC(=O)N2CCn3c(nnc3C(F)(F)F)C2)C(C)NC(=O)N1` (centres undefined): 2550 nM; for `CC1=C(CC(=O)N2Cc3cn(S(C)(=O)=O)nc3C2)C(c2ccc(F)c(F)c2)NC(=O)N1` (centres undefined): 478 nM.
For the molecule `CC1=C(C(=O)O)C(c2ccc(F)c(F)c2)N=C(N)N1C(=O)CN1CCCC(N)C1` (centres undefined), the Activity in assay [2] came out at 143.78 mg/dL; in assay [3] it was 101.44 mg/dL; in assay [4], 48.23 mg/dL; in [5], 107.57 mg/dL; in assay [6] it was 118.96 mg/dL; in [9], 114.65 mg/dL. Besides, the Activity was determined as 107.12 mg/dL in assay [10]; 134.45 mg/dL in assay [12]; 118.62 mg/dL in assay [13]; 115.15 mg/dL in [14]; 56.98 mg/dL in assay [16]; 106.76 mg/dL in assay [17]. For the same molecule, the Activity in assay [18] amounted to 114.84 mg/dL; in [19], 108.35 mg/dL; in assay [20], 103.07 mg/dL; in [21] it was 123.32 mg/dL; in [23], 110.72 mg/dL; in assay [25] it was 148.09 mg/dL. Besides, the result in assay [7], in [8], in assay [11], in assay [15], in [22] and in assay [24] was Active. The 50% inhibitory concentration (IC50) in assay [1] stood at 90 nM.
